Measured values published in US12421222B2 (AUGUSTINE THERAPEUTICS, priority 2021, dated 2025).

tested on: acetylated tubulin (Lys40) in HeLa cells; assay: Acetylated α-tubulin measurement in vitro (immunocytochemistry); format: cell-based; settings: Homo sapiens, 6 hours incubation, acetylated tubulin (Lys40) by immunocytochemistry, read-out: IC50 (Tubulin deacetylation)
Method in brief: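 HeLa cells in serum-free medium treated 6 h at 37 °C (final DMSO 0.1–0.4%), then PFA-fixed and immunostained for acetyl-Lys40 and total α-tubulin; high-content imaging.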

SMILES | IC50 [nM]
CCOc1cnc2nc(C)nc(SCC(=O)c3ccc(CNC(=O)CO)s3)c2c1 [Example 160, N-((5-(2-((6-ethoxy-2-methylpyrido[2,3-d]pyrimidin-4-yl)thio)acetyl)thiophen-2-yl)methyl)-2-hydroxyacetamide] | ≤ 100
COc1cnc2nc(C)nc(SCC(=O)c3ccc(CN4CCOCC4=O)s3)c2c1 [Example 161, 4-((5-(2-((6-methoxy-2-methylpyrido[2,3-d]pyrimidin-4-yl)thio)acetyl)thiophen-2-yl)methyl)morpholin-3-one] | 100 to 500
COc1cnc2nc(C)nc(SCC(=O)c3ccc(CN(C)C(=O)CO)s3)c2c1 [Example 162, 2-hydroxy-N-((5-(2-((6-methoxy-2-methylpyrido[2,3-d]pyrimidin-4-yl)thio)acetyl)thiophen-2-yl)methyl)-N-methylacetamide] | 100 to 500
COCC(=O)NCc1ccc(C(=O)CSc2nc(C)nc3ncc(OC)cc23)s1 [Example 163, 2-methoxy-N-((5-(2-((6-methoxy-2-methylpyrido[2,3-d]pyrimidin-4-yl)thio)acetyl)thiophen-2-yl)methyl)acetamide] | 100 to 500
COc1cnc2nc(C(F)F)nc(SCC(=O)c3ccc(CNC(=O)CO)s3)c2c1 [Example 164, N-((5-(2-((2-(difluoromethyl)-6-methoxypyrido[2,3-d]pyrimidin-4-yl)thio)acetyl)thiophen-2-yl)methyl)-2-hydroxyacetamide] | ≤ 100
COc1ccc2nc(C)nc(SCC(=O)c3ccc(CNC(=O)C4CCCO4)s3)c2c1 (centres unmarked) [Example 171, N-((5-(2-((6-methoxy-2-methylquinazolin-4-yl)thio)acetyl)thiophen-2-yl)methyl)tetrahydrofuran-2-carboxamide] | 100 to 500
COc1ccc2nc(C)nc(SCC(=O)c3ccc(CNC(=O)C(F)F)s3)c2c1 [Example 172, 2,2-difluoro-N-((5-(2-((6-methoxy-2-methylquinazolin-4-yl)thio)acetyl)thiophen-2-yl)methyl)acetamide] | 100 to 500
COc1ccc2nc(C)nc(SCC(=O)c3ccc(CNC(=O)CN)s3)c2c1 [Example 177, 2-amino-N-((5-(2-((6-methoxy-2-methylquinazolin-4-yl)thio)acetyl)thiophen-2-yl)methyl)acetamide] | ≤ 100
COc1ccc2nc(C)nc(SCC(=O)c3ccc(CNC(=O)C4CN(C)C4)s3)c2c1 [Example 178, N-((5-(2-((6-methoxy-2-methylquinazolin-4-yl)thio)acetyl)thiophen-2-yl)methyl)-1-methylazetidine-3-carboxamide] | ≤ 100
O=C(CO)NCc1ccc(C(=O)CSc2nccc3ncccc23)s1 [Example 179, N-((5-(2-((1,6-naphthyridin-5-yl)thio)acetyl)thiophen-2-yl)methyl)-2-hydroxyacetamide] | ≤ 100
O=C(CO)NCc1ccc(C(=O)CSc2nccc3ccncc23)s1 [Example 180, N-((5-(2-((2,7-naphthyridin-1-yl)thio)acetyl)thiophen-2-yl)methyl)-2-hydroxyacetamide] | 100 to 500
O=C(CO)NCc1ccc(C(=O)CSc2nccn3cncc23)s1 [Example 181, 2-hydroxy-N-((5-(2-(imidazo[1,5-a]pyrazin-8-ylthio)acetyl)thiophen-2-yl)methyl)acetamide] | 100 to 500
O=C(CO)NCc1ccc(C(=O)CSc2nccn3nccc23)s1 [Example 182, 2-hydroxy-N-((5-(2-(pyrazolo[1,5-a]pyrazin-4-ylthio)acetyl)thiophen-2-yl)methyl)acetamide] | 500 to 1000
CNCC(=O)NCc1ccc(C(=O)CSc2nc(C)nc3ccc(OC)cc23)s1 [Example 183, N-((5-(2-((6-methoxy-2-methylquinazolin-4-yl)thio)acetyl)thiophen-2-yl)methyl)-2-(methylamino)acetamide] | 100 to 500
COc1ccc2nc(C)nc(SCC(=O)c3ccc(CNC(=O)C4CCCN4)s3)c2c1 (centres unmarked) [Example 184, N-((5-(2-((6-methoxy-2-methylquinazolin-4-yl)thio)acetyl)thiophen-2-yl)methyl)pyrrolidine-2-carboxamide] | 100 to 500
COc1ccc2nc(C)nc(SCC(=O)c3ccc(CNC(=O)[C@H](C)O)s3)c2c1 [Example 185, (S)-2-hydroxy-N-((5-(2-((6-methoxy-2-methylquinazolin-4-yl)thio)acetyl)thiophen-2-yl)methyl)propanamide] | ≤ 100
COc1ccc2nc(C)nc(SCC(=O)c3ccc(CNC(=O)[C@@H](C)O)s3)c2c1 [Example 186, (R)-2-hydroxy-N-((5-(2-((6-methoxy-2-methylquinazolin-4-yl)thio)acetyl)thiophen-2-yl)methyl)propanamide] | ≤ 100
COc1ccc2nc(C)nc(SCC(=O)c3ccc(CNC(=O)N(C)C)s3)c2c1 [Example 189, 3-((5-(2-((6-methoxy-2-methylquinazolin-4-yl)thio)acetyl)thiophen-2-yl)methyl)-1,1-dimethylurea] | 100 to 500
COc1cnc2nc(C)nc(SCC(=O)c3ccc(CNC(=O)OC(C)(C)C)s3)c2c1 [Example 190, tert-butyl ((5-(2-((6-methoxy-2-methylpyrido[2,3-d]pyrimidin-4-yl)thio)acetyl)thiophen-2-yl)methyl)carbamate] | 100 to 500
Cc1nnc(SCC(=O)c2ccc(CNC(=O)C(C)(C)C)s2)c2ccccc12 [Example 194, N-((5-(2-((4-methylphthalazin-1-yl)thio)acetyl)thiophen-2-yl)methyl)pivalamide] | 500 to 1000
